Literature values, collected in PubChem BioAssay AID1259409 (Chemical Carcinogenesis Research Information System (CCRIS), 2018).

Test system: rodent chemically induced tumor inhibition, incidence and multiplicity
Assay: CCRIS tumor inhibitor studies
Settings: Promoter: NONE USED

| SMILES | tumour outcome (control, treated, inhibition, significance) (Carcinogen: 7,12-DIMETHYLBENZ[A]ANTHRACENE, 57-97-6, Dose [Inhibitor]: 0, 26 MG/KG BW 1/WK FOR 4 WK BEGINNING POST CARCINOGEN DOSE (STUDY DURATION: 4 MO), Route [Inhibitor]: SUBCUTANEOUS, Species: MOUSE, Strain/Sex: ICR/FEMALE, Target Tissue: Type of Lesion: LUNG: TUMOR, Dose [Carcinogen]: 1 MG/KG BW ONCE ADMINISTERED TO NEONATAL MICE) | tumour outcome (control, treated, inhibition, significance) (Carcinogen: 7,12-DIMETHYLBENZ[A]ANTHRACENE, 57-97-6, Dose [Inhibitor]: 0, 26 MG/KG BW 1/WK FOR 4 WK BEGINNING POST CARCINOGEN DOSE (STUDY DURATION: 4 MO), Route [Inhibitor]: SUBCUTANEOUS, Species: MOUSE, Strain/Sex: ICR/FEMALE, Target Tissue: Type of Lesion: LUNG: TUMOR, Dose [Carcinogen]: 10 MG/KG BW ONCE ADMINISTERED TO NEONATAL MICE) | tumour outcome (control, treated, inhibition, significance) (Carcinogen: 7,12-DIMETHYLBENZ[A]ANTHRACENE, 57-97-6, Dose [Inhibitor]: 0, 26 MG/KG BW 1/WK FOR 4 WK BEGINNING POST CARCINOGEN DOSE (STUDY DURATION: 4 MO), Route [Inhibitor]: SUBCUTANEOUS, Species: MOUSE, Strain/Sex: ICR/MALE, Target Tissue: Type of Lesion: LUNG: TUMOR, Dose [Carcinogen]: 1 MG/KG BW ONCE ADMINISTERED TO NEONATAL MICE) | tumour outcome (control, treated, inhibition, significance) (Carcinogen: 7,12-DIMETHYLBENZ[A]ANTHRACENE, 57-97-6, Dose [Inhibitor]: 0, 26 MG/KG BW 1/WK FOR 4 WK BEGINNING POST CARCINOGEN DOSE (STUDY DURATION: 4 MO), Route [Inhibitor]: SUBCUTANEOUS, Species: MOUSE, Strain/Sex: ICR/MALE, Target Tissue: Type of Lesion: LUNG: TUMOR, Dose [Carcinogen]: 10 MG/KG BW ONCE ADMINISTERED TO NEONATAL MICE) | tumour outcome (control, treated, inhibition, significance) (Carcinogen: 7,12-DIMETHYLBENZ[A]ANTHRACENE, 57-97-6, Dose [Inhibitor]: 0, 26 MG/KG BW 1/WK FOR 4 WK BEGINNING POST CARCINOGEN DOSE (STUDY DURATION: 6 MO), Route [Inhibitor]: SUBCUTANEOUS, Species: MOUSE, Strain/Sex: ICR/MALE, Target Tissue: Type of Lesion: LIVER: TUMOR, Dose [Carcinogen]: 10 MG/KG BW ONCE ADMINISTERED TO NEONATAL MICE) | tumour outcome (control, treated, inhibition, significance) (Carcinogen: 7,12-DIMETHYLBENZ[A]ANTHRACENE, 57-97-6, Dose [Inhibitor]: 0, 26 MG/KG BW 1/WK FOR 4 WK BEGINNING POST CARCINOGEN DOSE (STUDY DURATION: 6 MO), Route [Inhibitor]: SUBCUTANEOUS, Species: MOUSE, Strain/Sex: ICR/MALE, Target Tissue: Type of Lesion: LUNG: TUMOR, Dose [Carcinogen]: 1 MG/KG BW ONCE ADMINISTERED TO NEONATAL MICE) | tumour outcome (control, treated, inhibition, significance) (Carcinogen: 7,12-DIMETHYLBENZ[A]ANTHRACENE, 57-97-6, Dose [Inhibitor]: 0, 26 MG/KG BW 1/WK FOR 4 WK BEGINNING POST CARCINOGEN DOSE (STUDY DURATION: 6 MO), Route [Inhibitor]: SUBCUTANEOUS, Species: MOUSE, Strain/Sex: ICR/MALE, Target Tissue: Type of Lesion: LUNG: TUMOR, Dose [Carcinogen]: 10 MG/KG BW ONCE ADMINISTERED TO NEONATAL MICE) | tumour outcome (control, treated, inhibition, significance) (Carcinogen: N-BUTYL-N-(4-HYDROXYBUTYL)NITROSAMINE, 3817-11-6, Dose [Inhibitor]: 0.5 ML (2000 UG/ML) INSTILLED TRANSURETHRALLY 2/WK FOR 2 WK POST CARCINOGEN DOSE (STUDY DURATION: 20 WK), Route [Inhibitor]: INTRAVESICAL, Species: RAT, Strain/Sex: WISTAR/MALE, Target Tissue: Type of Lesion: BLADDER: CARCINOMA, Dose [Carcinogen]: 0.05% IN DRINKING WATER FOR 12 WK) | tumour outcome (control, treated, inhibition, significance) (Carcinogen: N-BUTYL-N-(4-HYDROXYBUTYL)NITROSAMINE, 3817-11-6, Dose [Inhibitor]: 0.5 ML (2000 UG/ML) INSTILLED TRANSURETHRALLY 2/WK FOR 2 WK POST CARCINOGEN DOSE (STUDY DURATION: 20 WK), Route [Inhibitor]: INTRAVESICAL, Species: RAT, Strain/Sex: WISTAR/MALE, Target Tissue: Type of Lesion: BLADDER: PAPILLOMA, Dose [Carcinogen]: 0.05% IN DRINKING WATER FOR 12 WK) | tumour outcome (control, treated, inhibition, significance) (Carcinogen: N-BUTYL-N-(4-HYDROXYBUTYL)NITROSAMINE, 3817-11-6, Dose [Inhibitor]: 2000 UG/ML INSTILLED CONTINUOUSLY FOR 2 WK POST CARCINOGEN DOSE (STUDY DURATION: 12 WK), Route [Inhibitor]: INTRAVESICAL, Species: RAT, Strain/Sex: WISTAR/MALE, Target Tissue: Type of Lesion: BLADDER: CARCINOMA, Dose [Carcinogen]: 0.05% IN DRINKING WATER FOR 12 WK) | tumour outcome (control, treated, inhibition, significance) (Carcinogen: N-BUTYL-N-(4-HYDROXYBUTYL)NITROSAMINE, 3817-11-6, Dose [Inhibitor]: 2000 UG/ML INSTILLED CONTINUOUSLY FOR 2 WK POST CARCINOGEN DOSE (STUDY DURATION: 12 WK), Route [Inhibitor]: INTRAVESICAL, Species: RAT, Strain/Sex: WISTAR/MALE, Target Tissue: Type of Lesion: BLADDER: PAPILLOMA, Dose [Carcinogen]: 0.05% IN DRINKING WATER FOR 12 WK) |
| --- | --- | --- | --- | --- | --- | --- | --- | --- | --- | --- | --- |
| C[n+]1ccc(-c2cc[n+](C)cc2)cc1 | 4/10 (40%), 2/9 (22%), 45%, not calculated | 9/11 (82%), 4/7 (57%), 30%, not calculated | 2/10 (20%), 0/9 (0%), 100%, not calculated | 9/11 (82%), 4/9 (44%), 46%, not calculated | 4/11 (36%), 2/17 (12%), 67%, not calculated | 3/10 (30%), 1/9 (11%), 63%, not calculated | 9/11 (82%), 13/17 (76%), 7%, not calculated |  |  |  |  |
| CO[C@@]12[C@H](COC(N)=O)C3=C(C(=O)C(C)=C(N)C3=O)N1C[C@@H]1N[C@@H]12 |  |  |  |  |  |  |  | 14/20 (70%), 8/10 (80%), -14%, not calculated | 6/20 (30%), 2/10 (20%), 33%, not calculated | 14/20 (70%), 2/10 (20%), 71%, not calculated | 6/20 (30%), 2/10 (20%), 33%, not calculated |
